In article PMC5218480 (PLoS ONE, 2017):

Tested on: MV-4-11 cells
Test: Gene expression microarray analysis (Affymetrix PrimeView) and GSEA
Assay type: cell-based, human
Parameters: RFU PODN (11730768_x_at) / Fold change /veh PODN (11730768_x_at) / RFU LINC00158 (11744669_a_at) / Fold change /veh LINC00158 (11744669_a_at) / RFU DUSP10 (11751237_a_at) / Fold change /veh DUSP10 (11751237_a_at) / RFU ID3 (11757404_x_at) / Fold change /veh ID3 (11757404_x_at) / RFU PLEKHG5 (11737974_s_at) / Fold change /veh PLEKHG5 (11737974_s_at) / RFU LRRC4B (11730491_at) / Fold change /veh LRRC4B (11730491_at) / RFU GIMAP4 (11747438_a_at) / Fold change /veh GIMAP4 (11747438_a_at) / RFU KRT8 (11758183_x_at) / Fold change /veh KRT8 (11758183_x_at) / RFU CNN1 (11734310_a_at) / Fold change /veh CNN1 (11734310_a_at) / RFU VPS37D (11726825_at) / Fold change /veh VPS37D (11726825_at) / RFU C10orf10 (11716522_x_at) / Fold change /veh C10orf10 (11716522_x_at) / RFU KIR2DL2 /// KIR2DL4 /// KIR2DL5A /// KIR2DL5B /// KIR2DS1 /// KIR2DS2 /// KIR2DS3 /// KIR2DS4 /// KIR3DL3 /// KIR3DL3 /// KIR3DS1 (11738374_at) / Fold change /veh KIR2DL2 /// KIR2DL4 /// KIR2DL5A /// KIR2DL5B /// KIR2DS1 /// KIR2DS2 /// KIR2DS3 /// KIR2DS4 /// KIR3DL3 /// KIR3DL3 /// KIR3DS1 (11738374_at) / RFU C1QL1 (11718748_at) / Fold change /veh C1QL1 (11718748_at) / RFU TMPRSS4 (11747572_a_at) / Fold change /veh TMPRSS4 (11747572_a_at) / RFU HAMP (11756126_x_at) / Fold change /veh HAMP (11756126_x_at) / RFU RNFT2 (11725882_a_at) / Fold change /veh RNFT2 (11725882_a_at) / RFU NR4A2 (11747474_a_at) / Fold change /veh NR4A2 (11747474_a_at) / RFU ABCC12 (11746883_a_at) / Fold change /veh ABCC12 (11746883_a_at) / RFU TMEM136 (11760407_x_at) / Fold change /veh TMEM136 (11760407_x_at) / RFU CLDN22 /// WWC2 (11732394_at) / Fold change /veh CLDN22 /// WWC2 (11732394_at) / RFU HLA-DPB1 (11760878_x_at) / Fold change /veh HLA-DPB1 (11760878_x_at) / RFU SPINT1 (11716480_a_at) / Fold change /veh SPINT1 (11716480_a_at) / RFU GAP43 (11754022_s_at) / Fold change /veh GAP43 (11754022_s_at) / RFU A4GNT (11735810_at) / Fold change /veh A4GNT (11735810_at) / RFU PRB3 (11715151_x_at) / Fold change /veh PRB3 (11715151_x_at) / RFU TUBB4B (11761932_at) / Fold change /veh TUBB4B (11761932_at) / RFU CAPN14 (11732068_a_at) / Fold change /veh CAPN14 (11732068_a_at) / RFU TMCC2 (11721928_a_at) / Fold change /veh TMCC2 (11721928_a_at) / RFU IRGQ (11745062_a_at) / Fold change /veh IRGQ (11745062_a_at) / RFU FAM174B (11720279_a_at) / Fold change /veh FAM174B (11720279_a_at) / RFU TMPRSS4 (11748680_a_at) / Fold change /veh TMPRSS4 (11748680_a_at) / RFU FAM212B (11763350_a_at) / Fold change /veh FAM212B (11763350_a_at) / RFU PLEKHG5 (11743358_a_at) / Fold change /veh PLEKHG5 (11743358_a_at) / RFU ZSCAN30 (11745921_a_at) / Fold change /veh ZSCAN30 (11745921_a_at) / RFU CMKLR1 (11741424_a_at) / Fold change /veh CMKLR1 (11741424_a_at) / RFU LOC101060620 /// MAPK8IP1 (11723275_at) / Fold change /veh LOC101060620 /// MAPK8IP1 (11723275_at) / RFU SPTSSB (11747773_x_at) / Fold change /veh SPTSSB (11747773_x_at) / RFU PRSS12 (11739890_at) / Fold change /veh PRSS12 (11739890_at) / RFU BIN1 (11741810_x_at) / Fold change /veh BIN1 (11741810_x_at) / RFU WNT11 (11732464_a_at) / Fold change /veh WNT11 (11732464_a_at) / RFU C10orf10 (11716521_a_at) / Fold change /veh C10orf10 (11716521_a_at) / RFU C5orf56 (11738089_at) / Fold change /veh C5orf56 (11738089_at) / RFU CYB561 (11721691_x_at) / Fold change /veh CYB561 (11721691_x_at) / RFU ANKRD19P (11752326_a_at) / Fold change /veh ANKRD19P (11752326_a_at) / RFU OR2T12 /// OR2T33 /// OR2T8 (11738714_s_at) / Fold change /veh OR2T12 /// OR2T33 /// OR2T8 (11738714_s_at) / RFU VCAN (11748164_a_at) / Fold change /veh VCAN (11748164_a_at) / RFU JSRP1 (11732532_at) / Fold change /veh JSRP1 (11732532_at) / RFU KRTAP10-11 (11738290_x_at) / Fold change /veh KRTAP10-11 (11738290_x_at) / RFU MYO3A (11730013_a_at) / Fold change /veh MYO3A (11730013_a_at) / RFU EBF3 (11725865_a_at) / Fold change /veh EBF3 (11725865_a_at) / RFU CAMK2N1 (11719241_x_at) / Fold change /veh CAMK2N1 (11719241_x_at) / RFU C5orf56 (11738088_a_at) / Fold change /veh C5orf56 (11738088_a_at) / RFU OLFML3 (11715873_a_at) / Fold change /veh OLFML3 (11715873_a_at) / RFU LOC100653217 /// NTM (11731650_a_at) / Fold change /veh LOC100653217 /// NTM (11731650_a_at) / RFU MAPK11 (11762145_a_at) / Fold change /veh MAPK11 (11762145_a_at) / RFU FIZ1 (11724087_x_at) / Fold change /veh FIZ1 (11724087_x_at) / RFU OASL (11726364_x_at) / Fold change /veh OASL (11726364_x_at) / RFU SOX15 (11748057_x_at) / Fold change /veh SOX15 (11748057_x_at) / RFU CD79A (11719716_a_at) / Fold change /veh CD79A (11719716_a_at) / RFU HIST1H1D (11736915_at) / Fold change /veh HIST1H1D (11736915_at) / RFU CASKIN2 (11723855_a_at) / Fold change /veh CASKIN2 (11723855_a_at) / RFU LOC730098 (11760151_x_at) / Fold change /veh LOC730098 (11760151_x_at) / RFU OR4N2 (11742367_at) / Fold change /veh OR4N2 (11742367_at) / RFU PRRT2 (11749266_a_at) / Fold change /veh PRRT2 (11749266_a_at) / RFU SNX32 (11753110_a_at) / Fold change /veh SNX32 (11753110_a_at) / RFU CDHR5 (11726645_a_at) / Fold change /veh CDHR5 (11726645_a_at) / RFU RCAN1 (11760418_a_at) / Fold change /veh RCAN1 (11760418_a_at) / RFU FAM167A (11723789_a_at) / Fold change /veh FAM167A (11723789_a_at) / RFU FAM26E (11764081_at) / Fold change /veh FAM26E (11764081_at) / RFU ISYNA1 (11749810_s_at) / Fold change /veh ISYNA1 (11749810_s_at) / RFU ACY1 (11761880_at) / Fold change /veh ACY1 (11761880_at) / RFU 11764098_at / Fold change /veh 11764098_at / RFU SAMD14 (11745864_x_at) / Fold change /veh SAMD14 (11745864_x_at) / RFU NPB (11741838_a_at) / Fold change /veh NPB (11741838_a_at) / RFU TMPRSS6 (11731388_a_at) / Fold change /veh TMPRSS6 (11731388_a_at) / RFU KRTAP10-2 (11738614_at) / Fold change /veh KRTAP10-2 (11738614_at) / RFU ARHGAP8 /// PRR5-ARHGAP8 (11727945_x_at) / Fold change /veh ARHGAP8 /// PRR5-ARHGAP8 (11727945_x_at) / RFU KRTAP5-7 /// NADSYN1 (11734609_at) / Fold change /veh KRTAP5-7 /// NADSYN1 (11734609_at) / RFU RASL12 (11751679_a_at) / Fold change /veh RASL12 (11751679_a_at) / RFU CDKN2B (11736163_a_at) / Fold change /veh CDKN2B (11736163_a_at) / RFU PRF1 (11729649_at) / Fold change /veh PRF1 (11729649_at) / RFU, ZNF638 /// ZNF638-IT1 / Fold change vs veh, ZNF638 /// ZNF638-IT1 / RFU, PANK3 / Fold change vs veh, PANK3 / RFU, SH3YL1 / Fold change vs veh, SH3YL1 / RFU, ZEB2 / Fold change vs veh, ZEB2 / RFU, NRIP1 / Fold change vs veh, NRIP1 / RFU, PTTG1IP / Fold change vs veh, PTTG1IP / RFU, CAPN2 / Fold change vs veh, CAPN2 / RFU, MED14 / Fold change vs veh, MED14 / RFU, SNORA58 / Fold change vs veh, SNORA58 / RFU, C1orf63 / Fold change vs veh, C1orf63 / RFU, LRRFIP1 / Fold change vs veh, LRRFIP1 / RFU, NDUFAF7 / Fold change vs veh, NDUFAF7 / RFU, SLC12A2 / Fold change vs veh, SLC12A2 / RFU, IBTK / Fold change vs veh, IBTK / RFU, ESF1 / Fold change vs veh, ESF1 / Fold change vs veh, TMEM50B / RFU, TAOK1 / Fold change vs veh, TAOK1 / RFU, ACBD3 / Fold change vs veh, ACBD3 / RFU, TMA16 / Fold change vs veh, TMA16 / RFU, RWDD3 / Fold change vs veh, RWDD3 / RFU, BCAT1 / Fold change vs veh, BCAT1 / RFU, EDEM3 / Fold change vs veh, EDEM3 / RFU, TMEM33 / Fold change vs veh, TMEM33 / RFU, WDR75 / Fold change vs veh, WDR75 / RFU, AHCTF1 / Fold change vs veh, AHCTF1 / RFU, TFRC / Fold change vs veh, TFRC / RFU, ZDHHC17 / Fold change vs veh, ZDHHC17 / RFU, NOM1 / Fold change vs veh, NOM1 / RFU, ARL8B / Fold change vs veh, ARL8B / RFU, ZBTB11 / Fold change vs veh, ZBTB11 / RFU, TAMM41 / Fold change vs veh, TAMM41 / RFU, KIAA1704 /// LOC100996395 / Fold change vs veh, KIAA1704 /// LOC100996395 / RFU, ING1 / Fold change vs veh, ING1 / RFU, TRMT61B / Fold change vs veh, TRMT61B / RFU, FUBP3 / Fold change vs veh, FUBP3 / RFU, TP53 / Fold change vs veh, TP53 / RFU, TNKS2 / Fold change vs veh, TNKS2 / RFU, ZFP14 / Fold change vs veh, ZFP14 / RFU, ACTR2 / Fold change vs veh, ACTR2 / RFU, PPP3R1 / Fold change vs veh, PPP3R1 / RFU, PIK3R1 / Fold change vs veh, PIK3R1 / RFU, HNRNPA1 / Fold change vs veh, HNRNPA1 / RFU, RNF170 / Fold change vs veh, RNF170 / RFU, ZNF28 / Fold change vs veh, ZNF28 / RFU, RNGTT / Fold change vs veh, RNGTT / RFU, OGT / Fold change vs veh, OGT / RFU, BRD1 / Fold change vs veh, BRD1 / RFU, MARS / Fold change vs veh, MARS / RFU, ZNF655 / Fold change vs veh, ZNF655 / RFU, FAHD1 / Fold change vs veh, FAHD1 / RFU, BDP1 / Fold change vs veh, BDP1 / RFU, LRRCC1 / Fold change vs veh, LRRCC1 / RFU, ARID1A / Fold change vs veh, ARID1A / RFU, ZNF146 / Fold change vs veh, ZNF146 / RFU, ZNF330 / Fold change vs veh, ZNF330 / RFU, GPN3 / Fold change vs veh, GPN3 / RFU, C9orf123 / Fold change vs veh, C9orf123 / RFU, N4BP2L2 / Fold change vs veh, N4BP2L2 / RFU, ARFIP1 / Fold change vs veh, ARFIP1 / RFU, FAM179B / Fold change vs veh, FAM179B / RFU, BCL10 / Fold change vs veh, BCL10 / RFU, UHRF1BP1L / Fold change vs veh, UHRF1BP1L / RFU, BET1 / Fold change vs veh, BET1 / RFU, CNOT2 / Fold change vs veh, CNOT2 / RFU, ZNF268 / Fold change vs veh, ZNF268 / Fold change vs veh, ZNF507 / RFU, DGCR2 / Fold change vs veh, DGCR2 / RFU, WDSUB1 / Fold change vs veh, WDSUB1 / Fold change vs veh, HSP90B1 /// MIR3652 / RFU, ADSS / Fold change vs veh, ADSS / RFU, GK / Fold change vs veh, GK / RFU, ZNF148 / Fold change vs veh, ZNF148 / RFU, TAF9 / Fold change vs veh, TAF9 / RFU, SLC1A5 / Fold change vs veh, SLC1A5 / RFU, SLMO2 / Fold change vs veh, SLMO2 / RFU, ABCC4 / Fold change vs veh, ABCC4 / RFU, LOC101060439 /// RAP1B / Fold change vs veh, LOC101060439 /// RAP1B / RFU, RFX7 / Fold change vs veh, RFX7 / RFU, GTPBP10 / Fold change vs veh, GTPBP10 / RFU, CNEP1R1 / Fold change vs veh, CNEP1R1 / RFU, BIVM-ERCC5 /// ERCC5 / Fold change vs veh, BIVM-ERCC5 /// ERCC5 / RFU, ILF3 / Fold change vs veh, ILF3 / RFU 11762660_at / Fold change /veh 11762660_at / RFU VCAN (11757783_s_at) / Fold change /veh VCAN (11757783_s_at) / RFU DDX43 (11728927_at) / Fold change /veh DDX43 (11728927_at) / RFU KRT8 (11758188_x_at) / Fold change /veh KRT8 (11758188_x_at) / RFU NKD1 (11759106_at) / Fold change /veh NKD1 (11759106_at) / RFU SRD5A1 (11742802_a_at) / Fold change /veh SRD5A1 (11742802_a_at) / RFU TPSAB1 /// TPSB2 (11721975_s_at) / Fold change /veh TPSAB1 /// TPSB2 (11721975_s_at) / RFU GSTM3 (11746129_a_at) / Fold change /veh GSTM3 (11746129_a_at) / RFU IL23R (11737362_x_at) / Fold change /veh IL23R (11737362_x_at) / RFU TMEM51 (11727254_a_at) / Fold change /veh TMEM51 (11727254_a_at) / RFU PIWIL2 (11732686_x_at) / Fold change /veh PIWIL2 (11732686_x_at) / RFU ORM1 (11744905_x_at) / Fold change /veh ORM1 (11744905_x_at) / RFU CCDC152 (11743942_at) / Fold change /veh CCDC152 (11743942_at) / RFU ECM1 (11717891_a_at) / Fold change /veh ECM1 (11717891_a_at) / RFU IL23R (11748794_a_at) / Fold change /veh IL23R (11748794_a_at) / RFU TNFAIP8L3 (11732012_x_at) / Fold change /veh TNFAIP8L3 (11732012_x_at) / RFU MBOAT4 (11741988_at) / Fold change /veh MBOAT4 (11741988_at) / RFU 11764193_at / Fold change /veh 11764193_at / RFU TMEM53 (11763286_at) / Fold change /veh TMEM53 (11763286_at) / RFU MAGEB2 (11727129_at) / Fold change /veh MAGEB2 (11727129_at) / RFU TMEM200A (11744735_a_at) / Fold change /veh TMEM200A (11744735_a_at) / RFU CCDC152 (11751479_a_at) / Fold change /veh CCDC152 (11751479_a_at) / RFU FAM211A (11726209_a_at) / Fold change /veh FAM211A (11726209_a_at) / RFU RGS16 (11746705_a_at) / Fold change /veh RGS16 (11746705_a_at) / RFU VCAN (11755009_s_at) / Fold change /veh VCAN (11755009_s_at) / RFU RHOB (11743442_s_at) / Fold change /veh RHOB (11743442_s_at) / RFU RGS16 (11720943_a_at) / Fold change /veh RGS16 (11720943_a_at) / RFU RGS16 (11720944_at) / Fold change /veh RGS16 (11720944_at) / RFU, VPS4B / Fold change vs veh, VPS4B / RFU, CREB1 / Fold change vs veh, CREB1 / RFU, DNAJC13 / Fold change vs veh, DNAJC13 / RFU, GNAQ / Fold change vs veh, GNAQ / RFU, CDK5R1 / Fold change vs veh, CDK5R1 / RFU, ZRANB3 / Fold change vs veh, ZRANB3 / RFU, CUL4A / Fold change vs veh, CUL4A / RFU, CCNY / Fold change vs veh, CCNY / RFU, UFL1 / Fold change vs veh, UFL1 / RFU, COG3 / Fold change vs veh, COG3 / RFU, DIAPH2 / Fold change vs veh, DIAPH2 / RFU, SKA2 / Fold change vs veh, SKA2 / RFU, AFF3 / Fold change vs veh, AFF3 / RFU, LMF1 / Fold change vs veh, LMF1 / RFU, IPO11 / Fold change vs veh, IPO11 / RFU, DFFB / Fold change vs veh, DFFB / RFU, FOXP1 / Fold change vs veh, FOXP1 / RFU, CARD8 / Fold change vs veh, CARD8 / RFU, STRN3 / Fold change vs veh, STRN3 / RFU, ADK / Fold change vs veh, ADK / RFU, RASSF2 / Fold change vs veh, RASSF2 / RFU, WIPF1 / Fold change vs veh, WIPF1 / RFU, LARP1B / Fold change vs veh, LARP1B / RFU, RASA1 / Fold change vs veh, RASA1 / RFU, RB1 / Fold change vs veh, RB1 / RFU, PPFIA1 / Fold change vs veh, PPFIA1 / RFU, MAT2A / Fold change vs veh, MAT2A / RFU, CCT5 / Fold change vs veh, CCT5 / RFU, WDR92 / Fold change vs veh, WDR92 / RFU, CUX1 / Fold change vs veh, CUX1 / RFU, TTC7A / Fold change vs veh, TTC7A / RFU, TMEM135 / Fold change vs veh, TMEM135 / RFU, DEPTOR / Fold change vs veh, DEPTOR / RFU, CPM / Fold change vs veh, CPM / RFU, DNAJB6 / Fold change vs veh, DNAJB6 / RFU, CACNA2D3 / Fold change vs veh, CACNA2D3 / RFU, DTX4 / Fold change vs veh, DTX4 / RFU, TFCP2 / Fold change vs veh, TFCP2 / RFU, GMCL1 /// GMCL1P1 / Fold change vs veh, GMCL1 /// GMCL1P1 / RFU, AEBP2 / Fold change vs veh, AEBP2 / RFU, SNHG1 /// SNORD22 /// SNORD25 /// SNORD26 /// SNORD27 /// SNORD28 /// SNORD29 /// SNORD31 / Fold change vs veh, SNHG1 /// SNORD22 /// SNORD25 /// SNORD26 /// SNORD27 /// SNORD28 /// SNORD29 /// SNORD31 / Fold change (Aza/veh), C12orf56 (ProbeSet 11735607_a_at) / Fold change (ACY-1035/veh), C12orf56 (ProbeSet 11735607_a_at) / Fold change (Aza/veh), FGFR1OP (ProbeSet 11751329_s_at) / Fold change (ACY-1035/veh), FGFR1OP (ProbeSet 11751329_s_at) / Fold change (Aza/veh), VPS36 (ProbeSet 11739960_a_at) / Fold change (ACY-1035/veh), VPS36 (ProbeSet 11739960_a_at) / RFU SYPL1 (11715823_x_at) / Fold change /veh SYPL1 (11715823_x_at) / RFU IGFBP7 (11715501_s_at) / Fold change /veh IGFBP7 (11715501_s_at) / RFU REEP3 (11722064_at) / Fold change /veh REEP3 (11722064_at) / RFU IGLL1 (11728026_x_at) / Fold change /veh IGLL1 (11728026_x_at): dose or concentration left out as unconfirmed
Details: MV-4-11 cells, 48 hours

Compound: Nc1ncn([C@@H]2O[C@H](CO)[C@@H](O)[C@H]2O)c(=O)n1 [azacitidine]
- RFU IRGQ (11745062_a_at): 24.06 RFU
